Results as given in ChEMBL document CHEMBL1133907, “Discovery of thioazepinone ligands for Src SH2: from non-specific to specific binding” (Bioorg Med Chem Lett, 2001).

How the values were obtained:
[1] = target: T1, Proto-oncogene tyrosine-protein kinase Src (Homo sapiens, UniProt P12931); test: Binding affinity was determined on Src protein tyrosine kinase SH2 domain using scintillation proximity assay (SPA)
[2] = target: T1, Proto-oncogene tyrosine-protein kinase Src; test: Binding affinity was determined on Src protein tyrosine kinase SH2 domain using fluorescence polarization assay with 2% DMSO in buffer solution
[3] = target: T1, Proto-oncogene tyrosine-protein kinase Src; test: Binding affinity for Src protein tyrosine kinase SH2 domain
[4] = target: T1, Proto-oncogene tyrosine-protein kinase Src; test: Binding affinity for Src protein tyrosine kinase SH2 domain using fluorescence polarization assay with 20% DMSO in buffer solution

T1 sequence (P12931 2-536 limits assumed): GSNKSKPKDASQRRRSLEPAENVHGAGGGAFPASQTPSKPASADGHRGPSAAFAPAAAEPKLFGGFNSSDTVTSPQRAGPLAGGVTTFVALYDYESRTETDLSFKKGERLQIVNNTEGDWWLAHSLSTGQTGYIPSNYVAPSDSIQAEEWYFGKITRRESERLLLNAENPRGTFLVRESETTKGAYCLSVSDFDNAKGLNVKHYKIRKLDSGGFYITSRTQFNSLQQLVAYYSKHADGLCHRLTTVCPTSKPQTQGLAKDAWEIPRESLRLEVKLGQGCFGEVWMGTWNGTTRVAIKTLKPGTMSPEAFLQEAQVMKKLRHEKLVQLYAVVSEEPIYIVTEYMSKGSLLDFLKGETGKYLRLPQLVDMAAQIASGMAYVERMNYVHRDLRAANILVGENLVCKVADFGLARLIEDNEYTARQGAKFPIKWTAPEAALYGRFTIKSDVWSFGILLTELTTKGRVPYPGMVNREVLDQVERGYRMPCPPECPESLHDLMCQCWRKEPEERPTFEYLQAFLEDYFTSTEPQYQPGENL

| IC50 [2] | Compound | also measured |
| --- | --- | --- |
|  | CC(=O)N[C@@H](Cc1ccc(OP(=O)(O)O)cc1)C(=O)N[C@H]1CSCCN(Cc2ccc(-c3ccccc3)cc2)C1=O | IC50 [1]: 0.09 µM |
| 27 µM | COc1ccc(C2Sc3ccccc3N(CC(=O)NCc3cccc4ccccc34)C(=O)C2NC(=O)c2ccc3c(Cl)c(OP(=O)(O)OCc4ccccc4)ccc3c2)cc1 (stereo not drawn) |  |
| 5 µM | COc1ccc(C2Sc3ccccc3N(CC(=O)NCc3cccc4ccccc34)C(=O)C2NC(=O)Cc2ccc(OP(=O)(O)OCc3ccccc3)cc2)cc1 (stereo not drawn) |  |
| 14.2 µM | COc1ccc(C2Sc3ccccc3N(CC(=O)Nc3cccc(Oc4ccccc4)c3)C(=O)C2NC(=O)[C@H](Cc2ccc(OP(=O)(O)OCc3ccccc3)cc2)NC(=O)OC(C)(C)C)cc1 (stereo partly drawn) |  |
| 20 µM | COc1ccc(C2Sc3ccccc3N(CC(=O)NCc3cccc4ccccc34)C(=O)C2NC(=O)c2ccc(OP(=O)(O)OCc3ccccc3)cc2)cc1 (stereo not drawn) |  |
|  | CC(=O)N[C@@H](Cc1ccc(OP(=O)(O)O)cc1)C(=O)N[C@H]1CSCCN(Cc2cccc(-c3ccccc3C#N)c2)C1=O | IC50 [1]: 0.3 µM |
| 339 µM | COc1ccc(C2Sc3ccccc3N(CC(=O)NCc3cccc4ccccc34)C(=O)C2NC(=O)CCc2ccc(OP(=O)(O)OCc3ccccc3)cc2)cc1 (stereo not drawn) |  |
| 46 µM | COc1ccc(C2Sc3ccccc3N(Cc3ccccc3)C(=O)C2NC(=O)[C@H](Cc2ccc(OP(=O)(O)OCc3ccccc3)cc2)NC(=O)OC(C)(C)C)cc1 (stereo partly drawn) |  |
| 95 µM | COc1ccc(C2Sc3ccccc3N(CC(=O)Nc3ccccc3OC)C(=O)C2NC(=O)[C@H](Cc2ccc(OP(=O)(O)OCc3ccccc3)cc2)NC(=O)OC(C)(C)C)cc1 (stereo partly drawn) |  |
| 873 µM | COc1ccc(C2Sc3ccccc3NC(=O)C2NC(=O)[C@H](Cc2ccc(OP(=O)(O)OCc3ccccc3)cc2)NC(=O)OC(C)(C)C)cc1 (stereo partly drawn) |  |
| 0.4 µM | CC(=O)N[C@@H](Cc1ccc(OP(=O)(O)O)cc1)C(=O)N[C@H]1CSCCN(Cc2cccc(OC(F)(F)F)c2)C1=O |  |
| 23 µM | COc1ccc(C2Sc3ccccc3N(C(C(=O)Nc3cccc4ccccc34)c3ccccc3)C(=O)C2NC(=O)[C@H](Cc2ccc(OP(=O)(O)OCc3ccccc3)cc2)NC(=O)OC(C)(C)C)cc1 (stereo partly drawn) |  |
|  | COC(=O)c1cccc(CN2CCSC[C@H](NC(=O)[C@H](Cc3ccc(OP(=O)(O)O)cc3)NC(C)=O)C2=O)c1 | IC50 [1]: 0.13 µM |
| 18 µM | COc1ccc(C2Sc3ccccc3N(Cc3ccc(-c4ccccc4C(=O)OC(C)(C)C)cc3)C(=O)C2NC(=O)[C@H](Cc2ccc(OP(=O)(O)OCc3ccccc3)cc2)NC(=O)OC(C)(C)C)cc1 (stereo partly drawn) |  |
| 26 µM | CC(C)(C)OC(=O)N[C@@H](Cc1ccc(OP(=O)(O)OCc2ccccc2)cc1)C(=O)NC1CSc2ccccc2N(CCCC2CCCCC2)C1=O (stereo partly drawn) | IC50 [3]: 13 µM; IC50 [4]: 87 µM |
|  | CC(=O)N[C@@H](Cc1ccc(OP(=O)(O)O)cc1)C(=O)N[C@H]1CSCCN(CC(=O)c2ccc(N(C)C)cc2)C1=O | IC50 [1]: 9.3 µM |

| IC50 [2] | Compound | also measured |
| --- | --- | --- |
| 6.4 µM | COc1ccc(C2Sc3ccccc3N(CCCC3CCCCC3)C(=O)C2NC(=O)[C@H](Cc2ccc(OP(=O)(O)OCc3ccccc3)cc2)NC(=O)OC(C)(C)C)cc1 (stereo partly drawn) | IC50 [3]: > 100 µM; IC50 [4]: 28 µM |
| 29 µM | COc1ccc(C2Sc3ccccc3N(CC(=O)Nc3ccc(Oc4ccccc4)cc3)C(=O)C2NC(=O)[C@H](Cc2ccc(OP(=O)(O)OCc3ccccc3)cc2)NC(=O)OC(C)(C)C)cc1 (stereo partly drawn) |  |
| 1.6 µM | CC(=O)N[C@@H](Cc1ccc(OP(=O)(O)O)cc1)C(=O)N[C@H]1CSCCN(Cc2cccc(C(=O)c3ccccc3)c2)C1=O |  |
| 23 µM | COc1ccc(C2Sc3ccccc3N(CC(=O)NCc3cccc4ccccc34)C(=O)C2NC(=O)c2ccc3cc(OP(=O)(O)OCc4ccccc4)ccc3c2)cc1 (stereo not drawn) |  |
|  | CC(=O)N[C@@H](Cc1ccc(OP(=O)(O)O)cc1)C(=O)N[C@H]1CSCCN(Cc2ccc3c(c2Cl)OCO3)C1=O | IC50 [1]: 1.2 µM |
| 422 µM | CC(C)(C)OC(=O)N[C@H](Cc1ccc(OP(=O)(O)O)cc1)C(=O)NC1CSc2ccccc2N(CCCC2CCCCC2)C1=O (stereo partly drawn) | IC50 [3]: 18 µM |
| 10 µM | CC(C)(C)OC(=O)N[C@@H](Cc1ccc(OP(=O)(O)O)cc1)C(=O)NC1CSc2ccccc2N(CCCC2CCCCC2)C1=O (stereo partly drawn) | IC50 [3]: 1 µM; IC50 [4]: 11 µM |
| 32 µM | COc1ccc(C2Sc3ccccc3N(CC(=O)NCc3cccc4ccccc34)C(=O)C2NC(=O)c2cc3cc(OP(=O)(O)OCc4ccccc4)ccc3[nH]2)cc1 (stereo not drawn) |  |
| 115 µM | CC(C)(C)OC(=O)N[C@@H](Cc1ccc(OP(=O)(O)O)cc1)C(=O)NC1CSCCN(CCCC2CCCCC2)C1=O (stereo partly drawn) | IC50 [3]: 1.4 µM |
| 1.6 µM | CC(=O)N[C@@H](Cc1ccc(OP(=O)(O)O)cc1)C(=O)N[C@H]1CSCCN(Cc2cccc(C(F)(F)F)c2)C1=O |  |
| 128 µM | COc1ccc(C2Sc3ccccc3N(CC(=O)NCc3cccc4ccccc34)C(=O)C2NC(=O)[C@H](Cc2ccc(OP(=O)(O)OCc3ccccc3)cc2)NC(=O)OC(C)(C)C)cc1 (stereo in doubt; 3a) |  |
| 118 µM | COc1ccc(C2Sc3ccccc3N(CC(=O)NCc3cccc4ccccc34)C(=O)C2NC(=O)[C@H](Cc2ccc(OP(=O)(O)OCc3ccccc3)cc2)NC(=O)OC(C)(C)C)cc1 (stereo in doubt; 3b) |  |
| 189 µM | COc1ccc(C2Sc3ccccc3N(CC(=O)Nc3cccc4ccccc34)C(=O)C2NC(=O)[C@H](Cc2ccc(OP(=O)(O)OCc3ccccc3)cc2)NC(=O)OC(C)(C)C)cc1 (stereo in doubt; 3c) |  |
| 133 µM | COc1ccc(C2Sc3ccccc3N(CC(=O)Nc3cccc4ccccc34)C(=O)C2NC(=O)[C@H](Cc2ccc(OP(=O)(O)OCc3ccccc3)cc2)NC(=O)OC(C)(C)C)cc1 (stereo in doubt; 3l) |  |
| 26 µM | COc1ccc(C2Sc3ccccc3N(CC(=O)Nc3cccc4ccccc34)C(=O)C2NC(=O)[C@H](Cc2ccc(OP(=O)(O)OCc3ccccc3)cc2)NC(=O)OC(C)(C)C)cc1 (stereo in doubt; 3m) |  |
| 23 µM | COc1ccc(C2Sc3ccccc3N(CC(=O)Nc3cccc4ccccc34)C(=O)C2NC(=O)[C@H](Cc2ccc(OP(=O)(O)OCc3ccccc3)cc2)NC(=O)OC(C)(C)C)cc1 (stereo in doubt; 3n) |  |

| Compound | IC50 [2] | also measured |
| --- | --- | --- |
| CC[C@H](C)[C@H](NC(=O)[C@H](CCC(=O)O)NC(=O)[C@H](CCC(=O)O)NC(=O)[C@@H](N)Cc1ccc(OP(=O)(O)O)cc1)C(=O)O | 6.5 µM | IC50 [3]: 0.15 µM; IC50 [4]: 5 µM |
